Data as given in patent publication US9597407B2, “Targeted antimicrobial moieties” (C3 Jian, Inc., priority 2009, dated 2017).

Test system: microorganisms
Test: Morphology, biofilm and growth disruption by peptides (Table 5)
Type: cell-based
Parameters: key: A: Peptide aggregates; B: Less hyphal formation; Clumps; Diffuse clumps and small polyps; F: Diffuse growth; H: Thin; I: Growth inhibition; Microcolony formation; Rippled; Small polyps; Thick; W: Halo formation on top, microlonies on bottom
Source text: In certain embodiments peptides that induce alterations in phenotype or other biological activities can also be used as antimicrobial effector moieties.

## PF-C214 (GGHKQLVIEPLVSQ; Peptide with targeting and/or antimicrobial activity)
F. nucleatum
  Organism, effect (morphology, biofilm and growth disruption): F. nucleatum (T)

## PF-199 (FPAFSFGAIAGSVSVAR; Peptide with targeting and/or antimicrobial activity)
C. jeikeium
  Organism, effect: C. jeikeium (R)
M. luteus
  Organism, effect: M. luteus (A)
S. epidermidis
  Organism, effect: S. epidermidis (C)

## SKFKVLRKIIIKEYKGELMLSIQKQR [PF-530]
E. coli
  Organism, effect (morphology, biofilm and growth disruption): E. coli (R)
E. faecalis
  Organism, effect (morphology, biofilm and growth disruption): E. faecalis (C)
MRSA
  Organism, effect (morphology, biofilm and growth disruption): MRSA (C)
S. epidermidis
  Organism, effect (morphology, biofilm and growth disruption): S. epidermidis (H)
S. pneumoniae
  Organism, effect (morphology, biofilm and growth disruption): S. pneumoniae (R)

## TKKIELKRFVDAFVKKSYENYILERELKKLIKAINEELPTK [PF-600]
E. coli
  Organism, effect (morphology, biofilm and growth disruption): E. coli (H)
M. luteus
  Organism, effect (morphology, biofilm and growth disruption): M. luteus (C)
MRSA
  Organism, effect (morphology, biofilm and growth disruption): MRSA (M)
S. epidermidis
  Organism, effect (morphology, biofilm and growth disruption): S. epidermidis (C)
S. mutans
  Organism, effect (morphology, biofilm and growth disruption): S. mutans (S)
S. pneumoniae
  Organism, effect (morphology, biofilm and growth disruption): S. pneumoniae (R)

## PF-516 (ASKQASKQASKQASKQ; Peptide with targeting and/or antimicrobial activity)
S. pneumoniae
  Organism, effect (morphology, biofilm and growth disruption): S. pneumoniae (H)

## PF-274 (SIQEAEKIIKNDPFYIHDVADYDFMWFEPSKSLEEIKEFV; Peptide with targeting and/or antimicrobial activity)
M. luteus
  Organism, effect: M. luteus (M)

## PF-004 (chain 1 ARLSKAIIIAVIVVYHLDVRGLF; chain 2 ARLSKAIIIAVIVVYHLDVRGLF; Peptide with targeting and/or antimicrobial activity)
C. jeikeium
  Organism, effect: C. jeikeium (A)
M. luteus
  Organism, effect: M. luteus (A)
MRSA
  Organism, effect: MRSA (R)
S. epidermidis
  Organism, effect: S. epidermidis (A)

## PF-032 (RIVVPAHQSNMASTPNLSITP; Peptide with targeting and/or antimicrobial activity)
C. jeikeium
  Organism, effect: C. jeikeium (C)
S. epidermidis
  Organism, effect: S. epidermidis (S)

## PF-347 (GIFTGVTVVVSLKHC; Peptide with targeting and/or antimicrobial activity)
E. coli
  Organism, effect: E. coli (C)
E. faecalis
  Organism, effect: E. faecalis (C)
MRSA
  Organism, effect: MRSA (C)
S. epidermidis
  Organism, effect: S. epidermidis (C)

## PF-610 (VFLKLKTSKIDLASIIFYP; Peptide with targeting and/or antimicrobial activity)
C. jejuni
  Organism, effect (morphology, biofilm and growth disruption): C. jejuni (D)
E. coli
  Organism, effect (morphology, biofilm and growth disruption): E. coli (C)
E. faecalis
  Organism, effect (morphology, biofilm and growth disruption): E. faecalis (D)
MRSA
  Organism, effect (morphology, biofilm and growth disruption): MRSA (D)
S. epidermidis
  Organism, effect (morphology, biofilm and growth disruption): S. epidermidis (C)
S. pneumoniae
  Organism, effect (morphology, biofilm and growth disruption): S. pneumoniae (D)

## PF-630 (chain 1 IPATPIIHS; chain 2 IPATPIIHS; Peptide with targeting and/or antimicrobial activity)
MRSA
  Organism, effect (morphology, biofilm and growth disruption): MRSA (M)

## PF-398 (ILVVLAGILLVVLSYVGISKFKMNC; Peptide with targeting and/or antimicrobial activity)
E. coli
  Organism, effect: E. coli (C)
E. faecalis
  Organism, effect: E. faecalis (C)
MRSA
  Organism, effect: MRSA (C)
S. epidermidis
  Organism, effect: S. epidermidis (C)

## PF-001 (chain 1 MNNWIIVAQLSVTVINEIIDIMKEKQKGGK; chain 2 MNNWIIVAQLSVTVINEIIDIMKEKQKGGK; Peptide with targeting and/or antimicrobial activity)
C. jeikeium
  Organism, effect: C. jeikeium (D)
M. luteus
  Organism, effect: M. luteus (C)
MRSA
  Organism, effect: MRSA (R)
S. epidermidis
  Organism, effect: S. epidermidis (C)

## PF-419 (VVTGKVGSLPQIK; Peptide with targeting and/or antimicrobial activity)
S. pneumoniae
  Organism, effect: S. pneumoniae (H)

## PF-612 (GTTLKYGLERQLKIDIHPEITIINLNGGADEFAKL; Peptide with targeting and/or antimicrobial activity)
E. coli
  Organism, effect (morphology, biofilm and growth disruption): E. coli (C)
M. luteus
  Organism, effect (morphology, biofilm and growth disruption): M. luteus (A)
MRSA
  Organism, effect (morphology, biofilm and growth disruption): MRSA (C)
P. mirabilis
  Organism, effect (morphology, biofilm and growth disruption): P. mirabilis (C)
S. epidermidis
  Organism, effect (morphology, biofilm and growth disruption): S. epidermidis (C)
S. mutans
  Organism, effect (morphology, biofilm and growth disruption): S. mutans (F)
S. pneumoniae
  Organism, effect (morphology, biofilm and growth disruption): S. pneumoniae (C)

## FESKILNASKELDKEKKVNTALSFNSHQDFAKAYQNGKI [PF-606]
C. albicans
  Organism, effect (morphology, biofilm and growth disruption): C. albicans (B)
MRSA
  Organism, effect (morphology, biofilm and growth disruption): MRSA (I)
S. epidermidis
  Organism, effect (morphology, biofilm and growth disruption): S. epidermidis (I)
S. mutans
  Organism, effect (morphology, biofilm and growth disruption): S. mutans (I)
S. pneumoniae
  Organism, effect (morphology, biofilm and growth disruption): S. pneumoniae (H)

## PF-582 (NLKTIEKECPFCNNKMDIKLKD; Peptide with targeting and/or antimicrobial activity)
E. faecalis
  Organism, effect (morphology, biofilm and growth disruption): E. faecalis (A)

## PF-203 (SWKCHHLAI; Peptide with targeting and/or antimicrobial activity)
C. jeikeium
  Organism, effect: C. jeikeium (R)
S. epidermidis
  Organism, effect: S. epidermidis (A)

## PF-067 (DLIVKVHICFVVKTASGYCYLNKREAQAAI; Peptide with targeting and/or antimicrobial activity)
B. subtilis
  Organism, effect: B. subtilis (C)
C. jeikeium
  Organism, effect: C. jeikeium (D)
C. jejuni
  Organism, effect: C. jejuni (D)
M. luteus
  Organism, effect: M. luteus (R)
MRSA
  Organism, effect: MRSA (M)
P. aeruginosa
  Organism, effect: P. aeruginosa (A)
S. epidermidis
  Organism, effect: S. epidermidis (D)
S. pneumoniae
  Organism, effect: S. pneumoniae (D)

## PF-595 (LQNKIYELLYIKERSKLCS; Peptide with targeting and/or antimicrobial activity)
C. jejuni
  Organism, effect (morphology, biofilm and growth disruption): C. jejuni (D)
E. coli
  Organism, effect (morphology, biofilm and growth disruption): E. coli (C)
E. faecalis
  Organism, effect (morphology, biofilm and growth disruption): E. faecalis (D)
MRSA
  Organism, effect (morphology, biofilm and growth disruption): MRSA (D)
S. epidermidis
  Organism, effect (morphology, biofilm and growth disruption): S. epidermidis (C)
S. pneumoniae
  Organism, effect (morphology, biofilm and growth disruption): S. pneumoniae (R)

## KTPNDKIHKTIIIKHIIL [PF-533]
E. coli
  Organism, effect (morphology, biofilm and growth disruption): E. coli (R)
E. faecalis
  Organism, effect (morphology, biofilm and growth disruption): E. faecalis (C)
MRSA
  Organism, effect (morphology, biofilm and growth disruption): MRSA (H)
S. epidermidis
  Organism, effect (morphology, biofilm and growth disruption): S. epidermidis (H)
S. pneumoniae
  Organism, effect (morphology, biofilm and growth disruption): S. pneumoniae (C)

## PF-536 (MEPIPHIMIIANQIGIIIEKA; Peptide with targeting and/or antimicrobial activity)
E. coli
  Organism, effect (morphology, biofilm and growth disruption): E. coli (R)
E. faecalis
  Organism, effect (morphology, biofilm and growth disruption): E. faecalis (C)
MRSA
  Organism, effect (morphology, biofilm and growth disruption): MRSA (C)
P. aeruginosa
  Organism, effect (morphology, biofilm and growth disruption): P. aeruginosa (H)
S. epidermidis
  Organism, effect (morphology, biofilm and growth disruption): S. epidermidis (C)
S. pneumoniae
  Organism, effect (morphology, biofilm and growth disruption): S. pneumoniae (M)

## PF-318 (MGRHLWNPSYFVATVSENTEEQIRKYINNQKKQVK; Peptide with targeting and/or antimicrobial activity)
B. subtilis
  Organism, effect: B. subtilis (C)
S. epidermidis
  Organism, effect: S. epidermidis (C)

## PF-586 (FFNQANYFFKEF; Peptide with targeting and/or antimicrobial activity)
C. jejuni
  Organism, effect (morphology, biofilm and growth disruption): C. jejuni (D)
E. coli
  Organism, effect (morphology, biofilm and growth disruption): E. coli (C)
E. faecalis
  Organism, effect (morphology, biofilm and growth disruption): E. faecalis (D)
MRSA
  Organism, effect (morphology, biofilm and growth disruption): MRSA (D)
S. epidermidis
  Organism, effect (morphology, biofilm and growth disruption): S. epidermidis (C)
S. pneumoniae
  Organism, effect (morphology, biofilm and growth disruption): S. pneumoniae (D)

## PF-190 (HFILRKPLLFMIHSLKTGPLDRF; Peptide with targeting and/or antimicrobial activity)
C. jeikeium
  Organism, effect: C. jeikeium (R)
S. epidermidis
  Organism, effect: S. epidermidis (C)

## PF-574 (LVKSGKLESPYEHSEHLTLSQEKGLE; Peptide with targeting and/or antimicrobial activity)
B. subtilis
  Organism, effect (morphology, biofilm and growth disruption): B. subtilis (D)

## PF-535 (NIKTRKRALKIIKQHQRSK; Peptide with targeting and/or antimicrobial activity)
P. aeruginosa
  Organism, effect (morphology, biofilm and growth disruption): P. aeruginosa (H)
S. pneumoniae
  Organism, effect (morphology, biofilm and growth disruption): S. pneumoniae (H)

## PF-140 (FHRRVIRASEWALTTRSFSTPLRSAAR; Peptide with targeting and/or antimicrobial activity)
C. albicans
  Organism, effect: C. albicans (B)
C. jeikeium
  Organism, effect: C. jeikeium (D)
C. jejuni
  Organism, effect: C. jejuni (D)
M. luteus
  Organism, effect: M. luteus (R)
MRSA
  Organism, effect: MRSA (M)
P. aeruginosa
  Organism, effect: P. aeruginosa (A)
S. epidermidis
  Organism, effect: S. epidermidis (D)
S. pneumoniae
  Organism, effect: S. pneumoniae (D)

## PF-411 (WVAVAILLNIALQTQLT; Peptide with targeting and/or antimicrobial activity)
C. jejuni
  Organism, effect: C. jejuni (D)
E. coli
  Organism, effect: E. coli (C)
E. faecalis
  Organism, effect: E. faecalis (D)
MRSA
  Organism, effect: MRSA (D)
P. aeruginosa
  Organism, effect: P. aeruginosa (A)
S. epidermidis
  Organism, effect: S. epidermidis (C)
S. pneumoniae
  Organism, effect: S. pneumoniae (D)

## PF-339 (KKIDILINKYMYLSK; Peptide with targeting and/or antimicrobial activity)
B. subtilis
  Organism, effect: B. subtilis (C)
S. epidermidis
  Organism, effect: S. epidermidis (C)

## PF-615 (FLNRFIFYIFTVKTKSALIKNLFLD; Peptide with targeting and/or antimicrobial activity)
C. jejuni
  Organism, effect (morphology, biofilm and growth disruption): C. jejuni (D)
E. coli
  Organism, effect (morphology, biofilm and growth disruption): E. coli (C)
E. faecalis
  Organism, effect (morphology, biofilm and growth disruption): E. faecalis (D)
MRSA
  Organism, effect (morphology, biofilm and growth disruption): MRSA (D)
S. epidermidis
  Organism, effect (morphology, biofilm and growth disruption): S. epidermidis (D)
S. pneumoniae
  Organism, effect (morphology, biofilm and growth disruption): S. pneumoniae (D)
